Measured values: the supplement of paper PMC10307832

Assays:
Test in all cases: relative viability (nuclei count vs DMSO), 5 days (fraction); higher = more cells survive
[1] = compound: COC1=CC=C(C=C1)COC2=C(C=C(C=C2)CC3=CN=C(N=C3N)N)OC [GW-2580] + CS(=O)(=O)N1CCN(Cc2cc3nc(-c4cccc5[nH]ncc45)nc(N4CCOCC4)c3s2)CC1 [Pictilisib] (partner 1 µM)
In short: (§1)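 Each reported value is a median over duplicate plates. It expresses relative viability: treated-well nuclei count divided by vehicle-well nuclei count. Lung cancer cell lines in 1536-well plates were dosed by pin tool a day after seeding, alone with one drug or with a fixed anchor-drug dose plus five library-drug doses (not always all listed) in √10 steps, and nuclei were counted after 5 days.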

[2] = compound: Cc1cnc(Nc2ccc(OCCN3CCCC3)cc2)nc1Nc1cccc(S(=O)(=O)NC(C)(C)C)c1 [Fedratinib] + CC1(C)CCC(c2ccc(Cl)cc2)=C(CN2CCN(c3ccc(C(=O)NS(=O)(=O)c4ccc(N[C@H](CCN5CCOCC5)CSc5ccccc5)c(S(=O)(=O)C(F)(F)F)c4)cc3)CC2)C1 [Navitoclax] (partner 0.5 µM)
In short: as §1

[3] = compound: COC1=CC=C(C=C1)COC2=C(C=C(C=C2)CC3=CN=C(N=C3N)N)OC [GW-2580] + CC(=O)Nc1cccc(-n2c(=O)n(C3CC3)c(=O)c3c(Nc4ccc(I)cc4F)n(C)c(=O)c(C)c32)c1 [Trametinib] (partner 0.02 µM)
In short: as §1

[4] = compound: COC1=CC=C(C=C1)COC2=C(C=C(C=C2)CC3=CN=C(N=C3N)N)OC [GW-2580] + Nc1ncn([C@H]2C[C@H](O)[C@@H](CO)O2)c(=O)n1 [Decitabine] (partner 2 µM)
In short: as §1

[5] = compound: Cc1cnc(Nc2ccc(OCCN3CCCC3)cc2)nc1Nc1cccc(S(=O)(=O)NC(C)(C)C)c1 [Fedratinib] + Cc1nc(Nc2ncc(C(=O)Nc3c(C)cccc3Cl)s2)cc(N2CCN(CCO)CC2)n1 [Dasatinib] (partner 0.075 µM)
In short: as §1

Row | Cell Line | relative viability ([1]; first compound 0.08 µM) | relative viability ([1]; first compound 0.8 µM) | relative viability ([1]; first compound 2.53 µM) | relative viability ([1]; first compound 8 µM) | relative viability ([2]; first compound 0.1 µM) | relative viability ([2]; first compound 0.3162 µM) | relative viability ([2]; first compound 1 µM) | relative viability ([3]; first compound 0.08 µM) | relative viability ([3]; first compound 0.8 µM) | relative viability ([3]; first compound 2.53 µM) | relative viability ([3]; first compound 8 µM) | relative viability ([4]; first compound 0.08 µM) | relative viability ([4]; first compound 0.8 µM) | relative viability ([4]; first compound 2.53 µM) | relative viability ([4]; first compound 8 µM) | relative viability ([5]; first compound 0.1 µM) | relative viability ([5]; first compound 0.3162 µM) | relative viability ([5]; first compound 1 µM)
1 | NCI-H2087 | 1.04 | 1.03 | 0.61 | 0.767 | 0.928 | 0.962 | 1 | 0.178 | 0.204 | 0.2 | 0.227 | 0.276 | 0.267 | 0.237 | 0.276 | 0.803 | 0.536 | 0.648
2 | NCI-H1437 | 0.465 | 0.514 | 0.378 | 0.387 | 1.14 | 1.02 | 0.988 | 0.524 | 0.571 | 0.448 | 0.415 | 0.564 | 0.574 | 0.617 | 0.535 | 0.301 | 0.409 | 0.329
3 | NCI-H1792 | 0.279 | 0.272 | 0.171 | 0.223 | 0.653 | 0.58 | 0.59 | 0.49 | 0.502 | 0.388 | 0.337 | 0.574 | 0.546 | 0.387 | 0.502 | 0.619 | 0.765 | 0.81
4 | ChaGo-K-1 | 0.735 | 1.15 | 0.526 | 0.655 | 0.786 | 1.11 | 0.425 | 0.921 | 0.921 | 0.881 | 0.867 | 0.561 | 0.515 | 0.495 | 0.519 | 0.515 | 0.437 | 0.496
5 | COR-L23 | 0.834 | 0.969 | 0.695 | 0.888 | 0.936 | 1.06 | 0.899 | 0.684 | 0.632 | 0.549 | 0.67 | 0.451 | 0.462 | 0.448 | 0.432 | 0.487 | 0.484 | 0.512
6 | COR-L 105 | 0.36 | 0.404 | 0.353 | 0.375 | 0.568 | 0.657 | 0.689 | 0.404 | 0.409 | 0.418 | 0.442 | 0.755 | 0.739 | 0.675 | 0.558 | 0.29 | 0.319 | 0.287
7 | LK-2 | 0.476 | 0.569 | 0.428 | 0.552 | 0.831 | 1.34 | 0.777 | 0.918 | 0.933 | 0.686 | 0.904 | 0.227 | 0.3 | 0.253 | 0.334 | 0.206 | 0.227 | 0.168
8 | 201T | 0.601 | 0.701 | 0.67 | 0.68 | 1.16 | 1.18 | 1.21 | 0.76 | 0.753 | 0.754 | 0.748 | 0.895 | 0.914 | 0.873 | 0.887 | 0.515 | 0.571 | 0.545
9 | NCI-H596 | 0.4 | 0.407 | 0.343 | 0.392 | 0.853 | 0.992 | 0.976 | 0.806 | 0.979 | 0.689 | 0.795 | 1.12 | 0.883 | 1.89 | 0.937 | 0.512 | 0.628 | 0.538
10 | H3255 | 0.534 | 0.471 | 0.419 | 0.464 | 0.533 | 0.385 | 0.384 | 0.512 | 0.627 | 0.44 | 0.553 | 0.564 | 0.613 | 0.557 | 0.576 | 0.397 | 0.345 | 0.293
11 | NCI-H647 | 0.37 | 0.515 | – | 0.48 | 1.14 | 1.2 | 0.97 | 0.474 | 0.469 | 0.406 | 0.479 | 0.402 | 0.272 | 0.361 | 0.383 | 0.21 | 0.203 | 0.142
12 | NCI-H2023 | 0.241 | 0.257 | 0.217 | 0.216 | 1.04 | 0.945 | 0.946 | 0.523 | 0.639 | 0.541 | 0.577 | 0.22 | 0.239 | 0.222 | 0.296 | 0.614 | 0.476 | 0.394
13 | NCI-H23 | 0.632 | 0.46 | 0.367 | 0.502 | 0.87 | 0.75 | 0.73 | 0.398 | 0.371 | 0.404 | 0.395 | 0.324 | 0.334 | 0.308 | 0.283 | 0.805 | 0.415 | 0.911
14 | NCI-H1944 | 0.35 | 0.324 | 0.343 | 0.278 | 1.04 | 1.07 | 1.03 | 0.463 | 0.387 | 0.336 | 0.377 | 0.414 | 0.421 | 0.45 | 0.395 | 0.21 | 0.235 | 0.196
15 | NCI-H1793 | 0.312 | 0.33 | 0.216 | 0.254 | 0.295 | 0.456 | 0.476 | 0.467 | 0.425 | 0.344 | 0.464 | 0.493 | 0.614 | 0.473 | 0.503 | 0.4 | 0.348 | 0.362
16 | NCI-H520 | 0.35 | 0.287 | 0.279 | 0.332 | 1.13 | 1.07 | 0.983 | 0.736 | 0.606 | 0.608 | 0.539 | 0.501 | 0.489 | 0.524 | 0.545 | 0.18 | 0.205 | 0.196
17 | NCI-H460 | 0.369 | 0.452 | 0.248 | 0.4 | 1.05 | 1.03 | 0.969 | 0.286 | 0.168 | 0.0886 | 0.187 | 0.577 | 0.574 | 0.461 | 0.461 | 0.496 | 0.415 | 0.329
